Common to all, as to type: in vivo
Holding throughout (set-up): key: 0: no effect; 10-25% kill; 26-35% kill; 36-45% kill; 46-55% kill; 56-65% kill; 66-75% kill; 76-85% kill; 86-99% kill; 9: 100% kill

In experiment [1] the test system is Diabrotic undecimpunctata howardi, 3rd instar southern corn rootworm. The experiment is described as follows: Southern corn rootworm soil test. The conditions noted are these: 50 (ppm as headed), mortality rating after 6 days. The method in brief: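 Compound applied in acetone to talc at 1.25 and 0.25 mg active ingredient per jar (about 50 and 10 kg/ha), dried, then mixed with millet seed and moist soil. Ten 3rd instar larvae added per jar; mortality counted at 6 days, with missing larvae scored dead. Results rated on a scale.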

Experiment [2] relates to Heliothis virescens, egg, tobacco budworm. The experiment can be described thus: Tobacco budworm egg test, dipped cotton leaf and eggs. Particulars: mortality rating after 3 days. An outline of the steps: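 Compound dissolved at 10,000 ppm in 35% aqueous acetone, diluted with water. A cotton leaf and a cheesecloth square with roughly 50-100 eggs aged 6-30 h are each dipped for about 3 s, then combined and kept humid. Mortality counted after 3 days and rated on a scale.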

For experiment [3], the system named is Heliothis virescens, 3rd instar tobacco budworm. The experiment can be described thus: Tobacco budworm 3rd instar test, dipped cotton cotyledons. Particulars: mortality rating after 3 days. An outline of the steps: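 Cotton cotyledons dipped in compound solution (10,000 ppm stock in 35% aqueous acetone, water dilutions), dried and quartered. One caterpillar per section, ten sections per treatment. After 3 days, mortality and feeding-damage reduction scored on a rating scale.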

Experiment [4] has as its system Spodoptera eridania, 3rd instar larvae, southern armyworm. The experiment can be described thus: Southern armyworm 7-day residual test. The conditions noted are these: R designates Residual: 7-day residual foliage, concentration not given; for ARMYWORM Day 3 R: rating at 3 days; for ARMYWORM Day 5 R: rating at 5 days. An outline of the steps:
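Compound was dissolved in 35% aqueous acetone (10,000 ppm stock) and diluted with water before treating lima bean leaves. The leaves were aged 7 days under high-intensity greenhouse lamps (14 h day). Third-instar Spodoptera eridania larvae were then assayed on the foliage and rated on a scale.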

Experiment [5] shares this test system. The experiment is described as follows: Southern armyworm systemic uptake (stem systemic) test. The conditions noted are these: cut stem in emulsion 3 days.
In experiment [6] the test system is Empoasca abrupta, adult, western potato leafhopper. The experiment is described as follows: Western potato leafhopper systemic uptake test. The conditions noted are these: 100 ppm. An outline of the steps:
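Cut Sieva lima bean stems stood 3 days at 27 °C in aqueous emulsion of test material (100 ppm, further 10-fold dilutions) for systemic uptake. One leaf then exposed to about 10 adult leafhoppers in a moist petri dish; mortality counted after 2 days and rated on a scale.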

Setting [7] is: systemic uptake, rating scale 0-9.

With `CC1(C)CN=C(SCn2c(-c3ccc(Cl)cc3)c(C#N)c(Br)c2C(F)(F)F)NC1` [Example 10], the “SOUTHERN CORN ROOTWORM” value in experiment [1] worked out at 0. For the same molecule, the “TOBACCO BUDWORM Egg” value in experiment [2] (100 ppm) and in experiment [2] (1000 ppm) was 0 in each case. Moreover, the “TOBACCO BUDWORM 3rd Instar” value in experiment [3] (10 ppm) was 0. Besides, in experiment [4], the “ARMYWORM Day 3 R” value is recorded as 9 (100% kill). The “ARMYWORM Day 5 R” value in experiment [4] is listed as 9 (100% kill). In experiment [5], the “ARMYWORM Stem Sys” value turned out to be 0. For the same molecule, the “LEAFHOPPER Systemic” value in experiment [6] (setting [7]) is given as 6 (66-75% kill).
`CCOC(=S)SCn1c(Cl)c(C#N)c(Cl)c1-c1ccc(Cl)c(Cl)c1` [Example 37]: the “SOUTHERN CORN ROOTWORM” value in experiment [1] is given as 0. The “TOBACCO BUDWORM Egg” value in experiment [2] (1000 ppm) is 0. For the same molecule, the “TOBACCO BUDWORM 3rd Instar” value is given as 0 in experiment [3] (10 ppm), 9 (100% kill) in experiment [3] (100 ppm) and 9 (100% kill) in experiment [3] (1000 ppm). Moreover, the “ARMYWORM Day 3 R” value in experiment [4] was 9 (100% kill). Further, in experiment [4], the “ARMYWORM Day 5 R” value is listed as 9 (100% kill). The “ARMYWORM Stem Sys” value in experiment [5] amounted to 0. Moreover, the “LEAFHOPPER Systemic” value in experiment [6] (setting [7]) is recorded as 0.
As for `N#Cc1c(Br)c(Br)n(CSC2=NCCCN2)c1Br` [Example 13], the “SOUTHERN CORN ROOTWORM” value in experiment [1] is recorded as 0. Moreover, in experiment [2] (1000 ppm), the “TOBACCO BUDWORM Egg” value is 0. Moreover, in experiment [3] (1000 ppm), the “TOBACCO BUDWORM 3rd Instar” value amounted to 0. Further, in experiment [4], the “ARMYWORM Day 3 R” value amounted to 0 and the “ARMYWORM Day 5 R” value is given as 7 (76-85% kill). In addition, in experiment [5], the “ARMYWORM Stem Sys” value is listed as 7 (76-85% kill). Moreover, the “LEAFHOPPER Systemic” value in experiment [6] (setting [7]) was 0.
As for `CN(C)C(=S)SCn1c(Cl)c(C#N)c(Cl)c1-c1ccc(Cl)c(Cl)c1` [Example 36], the “SOUTHERN CORN ROOTWORM” value in experiment [1] was determined as 0. Moreover, in experiment [2] (1000 ppm), the “TOBACCO BUDWORM Egg” value worked out at 0. For the same molecule, the “TOBACCO BUDWORM 3rd Instar” value in experiment [3] (10 ppm) is recorded as 0; in experiment [3] (100 ppm), 9 (100% kill); in experiment [3] (1000 ppm), 9 (100% kill). For the same molecule, in experiment [4], the “ARMYWORM Day 3 R” value is reported as 9 (100% kill). Besides, the “ARMYWORM Day 5 R” value in experiment [4] is reported as 9 (100% kill). Also, the “ARMYWORM Stem Sys” value in experiment [5] came out at 0. The “LEAFHOPPER Systemic” value in experiment [6] (setting [7]) worked out at 0.
Consider `N#Cc1c(Cl)c(C(F)(F)F)n(CSC2=NCCN2)c1-c1ccc(Cl)cc1` [Example 4], for which the “SOUTHERN CORN ROOTWORM” value in experiment [1] turned out to be 0. For the same molecule, the “TOBACCO BUDWORM Egg” value in experiment [2] (100 ppm) and in experiment [2] (1000 ppm) was 9 (100% kill) each time. Moreover, the “TOBACCO BUDWORM 3rd Instar” value in experiment [3] (10 ppm), in experiment [3] (100 ppm) and in experiment [3] (1000 ppm) was 9 (100% kill) throughout. The “ARMYWORM Day 3 R” value in experiment [4] is 9 (100% kill). Further, the “ARMYWORM Day 5 R” value in experiment [4] is 9 (100% kill). In addition, in experiment [5], the “ARMYWORM Stem Sys” value was 0. In addition, in experiment [6] (cut stem in emulsion 3 days, mortality rating after 2 days), the “LEAFHOPPER Systemic” value turned out to be 0.
Turning to `N=C(N)SCn1c(-c2ccc(Cl)c(Cl)c2)c(Br)c(C(F)(F)F)c1C(F)(F)F` [Example 18], in experiment [1], the “SOUTHERN CORN ROOTWORM” value amounted to 0. Also, the “TOBACCO BUDWORM Egg” value in experiment [2] (1000 ppm) is 0. Besides, the “TOBACCO BUDWORM 3rd Instar” value in experiment [3] (10 ppm) is on record as 0; in experiment [3] (100 ppm) it was 9 (100% kill); in experiment [3] (1000 ppm) it was 9 (100% kill). Further, the “ARMYWORM Day 3 R” value in experiment [4] is recorded as 9 (100% kill). The “ARMYWORM Day 5 R” value in experiment [4] is given as 9 (100% kill). Further, in experiment [5], the “ARMYWORM Stem Sys” value was 0. The “LEAFHOPPER Systemic” value in experiment [6] (setting [7]) was 0.
With `N#Cc1c(Br)c(C(F)(F)F)n(CSC2=NCCS2)c1-c1ccc(Cl)cc1` [Example 16], in experiment [1], the “SOUTHERN CORN ROOTWORM” value is listed as 9 (100% kill). Further, the “TOBACCO BUDWORM Egg” value in experiment [2] (100 ppm) and in experiment [2] (1000 ppm) was 0 in each case. The “TOBACCO BUDWORM 3rd Instar” value in experiment [3] (10 ppm), in experiment [3] (100 ppm) and in experiment [3] (1000 ppm) was 9 (100% kill) in each case. Also, in experiment [4], the “ARMYWORM Day 3 R” value is listed as 9 (100% kill). The “ARMYWORM Day 5 R” value in experiment [4] is 9 (100% kill). In experiment [5], the “ARMYWORM Stem Sys” value is 4 (46-55% kill). In addition, the “LEAFHOPPER Systemic” value in experiment [6] (setting [7]) turned out to be 0.
On to `CN=C(NC)SCn1c(Cl)c(Cl)c(C#N)c1-c1ccc(Cl)c(Cl)c1` [Example 15], for which the “SOUTHERN CORN ROOTWORM” value in experiment [1] is 0. In addition, the “TOBACCO BUDWORM Egg” value in experiment [2] (100 ppm) is reported as 0. In addition, the “TOBACCO BUDWORM Egg” value in experiment [2] (1000 ppm) is listed as 0. For the same molecule, in experiment [3] (10 ppm), the “TOBACCO BUDWORM 3rd Instar” value is listed as 0. Moreover, in experiment [4], the “ARMYWORM Day 3 R” value is reported as 9 (100% kill) and the “ARMYWORM Day 5 R” value is on record as 9 (100% kill). Besides, the “ARMYWORM Stem Sys” value in experiment [5] was found to be 0. For the same molecule, the “LEAFHOPPER Systemic” value in experiment [6] (setting [7]) is reported as 0.

For the origin of these results see patent publication EP0545103A1, “Insecticidal, acaricidal and molluscicidal 1-(substituted) thioalkylpyrroles” (priority 1991, dated 1993).
